Test results reported in US7955294B2, “Intermittent dosing of nitric oxide gas” (Sensormedics Corporation, priority 2004, dated 2011).

Experiments:
[1] = tested on: E. coli; test: Survival of bacteria under cycled high/low NO gas exposure (FIG. 9); assay type: cell-based; details: 160 ppm NO gas 30 minutes then 20 ppm 3.5 hours, cycled every 4 hours for 24 hours; compared to air
Experimental: (§1) The effectiveness of the intermittent high dose delivery of nitric oxide gas in combating microorganisms was tested and verified. Briefly, the experimental methods were as follows. Inoculums of varying bacteria was prepared to a suspension of 2.5×10^8 cfu/ml, and diluted 1:1000 in sterile normal saline. Three milliliters of the inoculums were used per well in a sterile culture place. Exposure of the inoculums were performed in an exposure chamber, which has been described for example, in Ghafarri, A. et al., “A direct nitric oxide gas delivery system for bacterial and mammalian cell cultures,” Nitric Oxide. 12(3):129-40 (May 2005), which is hereby incorporated by reference as if fully set forth herein. The inoculums were exposed to 160 ppm of NO gas at a flow rate of 2.5 liters per minute for 30 minutes followed by exposure to 20 ppm of NO gas for 3.5 hours. The exposure to high and low concentrations of NO gas was repeatedly cycled every 4 hours for 24 hours. At various times (e.g., 0, 4, 8, and 12 hours), samples were taken and plated to determine the survivability of the bacteria as determined by counting cfu/ml.
(§2) FIGS. 6-9 show the survival of various bacteria used in the experiment with NO gas compared to exposure to air as control.

[2] = tested on: mycothiol-deficient Mycobacterium smegmatis Mutant MshA; test: Survival of mycothiol-deficient mutant versus wild type on exposure to NO gas (FIG. 10); assay type: cell-based; details: 200 ppm NO gas; wild type counterpart mc^2 155
Experimental: (§3) Additional studies were performed to test the hypothesis that the effect of NO gas in killing microorganisms is related to thiol function. […] This may be due to Mycobacteria having an exceptional thiol, mycothiol, that maintains the redox balance in the cell and protects the cell from nitrosative and oxidative stress. In order to test this hypothesis, sensitivities to NO gas was compared between mycothiol-deficient Mycobacterium smegmatis Mutant MshA to its wild type counterpart, mc^2 155 by exposing both strains to 200 ppm of NO gas. MshA is an enzyme needed in mycothiol biosynthesis.

[3] = tested on: P. aeruginosa (clinical strain from Cystic Fibrosis); test: Survival of bacteria under cycled high/low NO gas exposure (FIG. 8); assay type: cell-based; details: 160 ppm NO gas 30 minutes then 20 ppm 3.5 hours, cycled every 4 hours for 24 hours; compared to air
Experimental: as §1, §2

[4] = tested on: S. aureus (ATCC#25923); test: Survival of bacteria under cycled high/low NO gas exposure (FIG. 6); assay type: cell-based; details: 160 ppm NO gas 30 minutes then 20 ppm 3.5 hours, cycled every 4 hours for 24 hours; compared to air
Experimental: as §1, §2

[5] = tested on: Mycobacteria; test: Sensitivity of various microorganisms to NO gas damage; assay type: cell-based; details: compared with various other microorganisms
Experimental: as §3

[6] = tested on: P. aeruginosa (ATCC#27853); test: Survival of bacteria under cycled high/low NO gas exposure (FIG. 7); assay type: cell-based; details: 160 ppm NO gas 30 minutes then 20 ppm 3.5 hours, cycled every 4 hours for 24 hours; compared to air
Experimental: as §1, §2

[7] = tested on: mycothiol in wild type M. smegmatis; test: Mycothiol level by HPLC after NO gas exposure (FIG. 11); assay type: cell-based, Mycobacterium smegmatis; details: 400 ppm NO gas, compared to exposure to air
Experimental: Further experiments were conducted to assay and measure the mycothiol level using HPLC in wild type M. smegmatis after exposure to 400 ppm NO gas and were compared to mycothiol level after exposure to air.

SMILES: [N]=O [NO gas, nitric oxide]
- survival of E. coli (cfu/ml) [1]: effective method of killing the bacteria
- sensitivity of MshA mutant to NO gas versus wild type [2]: more sensitive
- time to kill MshA mutant versus wild type [2]: killed in less time than its wild type counterpart
- survival of P. aeruginosa clinical strain from Cystic Fibrosis (cfu/ml) [3]: effective method of killing the bacteria
- survival of S. aureus (cfu/ml) [4]: effective method of killing the bacteria
- sensitivity of Mycobacteria to NO gas damage [5]: less sensitive
- survival of P. aeruginosa ATCC#27853 (cfu/ml) [6]: effective method of killing the bacteria
- level of mycothiol in the mycobacterium [7]: reduced compared to exposure to air
